Assay results as given in patent publication US10758609B2, “Cross-reactive T-cell epitopes of HIV, SIV, and FIV for vaccines in humans and cats” (priority 2015, dated 2020).
Residues, ends and D or L forms follow the SMILES beside them.

System: CD8^+ T cells from HIV^+ subjects
Experiment: FACS-based intracellular staining (ICS) for cytolysin (perforin) and cytotoxins (GrzA, GrzB) in CD8+ T cells
Settings: HIV+ human subjects; for Cyto: CD8+ T-cell cytotoxins (perforin, GrzA & B), frequency of responders: FIV epitope peptide; for Cyto (cytolysin/cytotoxin production), frequency of responders: FIV peptides; for CyCD8: CD8+ T-cell cytolysin/cytotoxins (perforin, GrzA & B), frequency of responders: HIV-1 epitope peptide, threshold ≥0.2%
Description: The overlapping peptide pools of FIV and HIV-1 structural and enzyme proteins were used to stimulate the […] (PBMC) and the T cells from HIV^+ subjects as previously described for epitope mapping of HIV-1 and FIV p24 and reverse transcriptase (RT) (Sanou et al., 2013; Roff et al., 2015). The individual peptides in those peptide pools with positive responses to either interferon-γ (IFNγ) production and/or T-cell proliferation were determined with IFNγ ELISpot analysis and CFSE-based CD3^+CD4^+ and CD3^+CD8^+ T-cell proliferation analyses followed by the FACS-based intracellular staining (ICS) for cytolysin (perforin) and cytotoxin (granzyme A [GrzA] and GrzB) (Sanou et al., 2013; Roff et al., 2015). Besides viral p24 and RT proteins, the identical approach was used to identify anti-HIV/FIV T-cell epitopes on viral matrix (MA), nucleocapsid (NC), protease (PR), RNAase, integrase (IN), surface envelope (SU Env), and transmembrane envelope (TM Env) (FIG. 12).
Since our goal is to develop HIV vaccine for human use, the HIV peptides (Table 10) counterpart of the cross-reactive FIV peptides shown in Table 9 were tested with PBMC and T cells from HIV^+ subjects. The immune functions analyzed were human IFNγ production by ELISpot, cytolysin/cytotoxin production by ICS, and CFSE-based proliferation of CD3^+CD4^+ and CD3^+CD8^+ T cells from HIV^+ subjects (Table 10, the first set of results). In addition, the Los Alamos National Laboratories (LANL) database was used to identify the HLA allele(s) of the HIV epitope sequence with CTL activity that can exist within the sequence of the conserved counterpart HIV peptide (Table 9, LANL CTL). The bold HLA class-I supertypes and the bold 2-digit alleles are those on the “Optimal CD8^+ CTL Epitopes” list and those without bold are alleles for potential CTL epitope. […] The HLA class II such as HLA-DRB1 has yet to be fully classified into supertypes, and therefore the 4-digit resolution nomenclatures for the HLA-DRB1 alleles are shown.
The threshold for positive IFNγ and IL2 ELISpot responses is ≥50 spot-forming units (SFU) per 10^6 PBMC. The threshold for CFSE-based CD4^+ and CD8^+ T-cell proliferation is ≥2% CD4^+ T-cell CFSE^low or CD8^+ T-cell CFSE^low. The threshold of FACS-based intracellular cytokine staining (ICS) is ≥0.2%. […] The nine FIV peptides in black were used in the current MAP vaccine trial, whereas the 13 peptides in blue were not used. […] The MAPs and their corresponding peptide(s) were also tested for their ability to enhance or suppress in vitro FIV infection of feline PBMC (E/S of peptides and E/S of MAP).
The counterpart HIV-1 peptides of the FIV peptides were also tested for immunogenicity using PBMC and T cells from HIV^+ human subjects. […] The HRT7-1 and HRT7-2 were also tested with cells from HIV^+ subjects on ART. The threshold for positive IFNγ ELISpot response is ≥75 spot-forming units (SFU) per 10^6 PBMC. The threshold for CFSE-based CD4^+ (CD4^+ T) and CD8^+ (CD8^+ T) T-cell proliferation is ≥2% CD4^+ T-cell CFSE^low or CD8^+ T-cell CFSE^low. The threshold of intracellular cytokine staining (ICS) of FACS-based cytolysin (perforin) and cytotoxins (granzymes A and B) in CD4^+ T cells (CyCD4) and CD8^+ T cells (CyCD8) is ≥0.2%. […] The nine HIV-1 peptides in black are the counterpart FIV peptides used in the current MAP vaccine trial, whereas the 13 peptides in blue were not.

Compound | Cyto: CD8+ T-cell cytotoxins (perforin, GrzA & B), frequency of responders | Cyto (cytolysin/cytotoxin production), frequency of responders | CyCD8: CD8+ T-cell cytolysin/cytotoxins (perforin, GrzA & B), frequency of responders
CC[C@H](C)[C@H](NC(=O)[C@H](CO)NC(=O)[C@H](CC(C)C)NC(=O)[C@H](CO)NC(=O)[C@H](CCC(N)=O)NC(=O)[C@H](CCCCN)NC(=O)[C@H](CC(C)C)NC(=O)[C@H](Cc1ccc(O)cc1)NC(=O)[C@H](CC(C)C)NC(=O)[C@H](CCCCN)NC(=O)[C@@H](NC(=O)[C@H](CCC(=O)O)NC(=O)[C@H](C)N)C(C)C)C(=O)N[C@@H](C)C(=O)O [Fp14-3] (H-AEVKLYLKQSLSIA-OH; N-terminus and C-terminus assumed) | ++++ (>54% (++++)) | ++++ (>54% (++++)) | 
CC[C@H](C)[C@H](NC(=O)[C@H](CO)NC(=O)[C@H](CC(C)C)NC(=O)[C@H](CO)NC(=O)[C@H](CCC(N)=O)NC(=O)[C@H](CCCCN)NC(=O)[C@H](CC(C)C)NC(=O)[C@H](Cc1ccc(O)cc1)NC(=O)[C@H](CC(C)C)NC(=O)[C@@H](N)CCCCN)C(=O)N[C@@H](C)C(=O)N[C@@H](CC(N)=O)C(=O)N[C@@H](C)C(=O)O [Fp14-4] (H-KLYLKQSLSIANA-OH; N-terminus and C-terminus assumed) | ++++ (>54% (++++)) | ++++ (>54% (++++)) | 
CC[C@H](C)[C@H](NC(=O)[C@@H](N)CCCCN)C(=O)N[C@@H](CCCNC(=N)N)C(=O)N[C@@H](CC(C)C)C(=O)N[C@@H](CCCNC(=N)N)C(=O)N1CCC[C@H]1C(=O)NCC(=O)NCC(=O)N[C@@H](CCCCN)C(=O)N[C@@H](CCCCN)C(=O)N[C@@H](CCCCN)C(=O)N[C@@H](Cc1ccc(O)cc1)C(=O)O [HMA1] |  |  | − (0%-1.4% (−))
CC(C)C[C@H](NC(=O)[C@@H](NC(=O)[C@H](C)NC(=O)[C@@H](NC(=O)[C@@H](NC(=O)[C@H](CC(N)=O)NC(=O)[C@H](Cc1ccc(O)cc1)NC(=O)[C@H](CC(C)C)NC(=O)[C@H](CO)NC(=O)[C@H](CCCNC(=N)N)NC(=O)[C@H](CC(C)C)NC(=O)[C@H](CCC(=O)O)NC(=O)[C@H](CCC(=O)O)NC(=O)[C@H](CO)NC(=O)CN)[C@@H](C)O)C(C)C)[C@@H](C)O)C(=O)O [HMA2] |  |  | − (0%-1.4% (−))
